Reference: patent publication US20240150377A1, “MODULATORS OF CYSTIC FIBROSIS TRANSMEMBRANE CONDUCTANCE REGULATOR” (VERTEX PHARMACEUTICALS INCORPORATED, priority 2020, published 2024)
pEC50: −log10 of the molar value. Where two headings read alike, the source gives them in different places.

What was measured:
Type in all cases: cell-based
[1] = biological target: CFTR (Homo sapiens, UniProt P13569); assay: Membrane potential dye, Enteroid Assay A; conditions: Table 7; for Ent. A Max Activity: chloride transport as % of triple combination control (Enteroid Assay A); for pEC50: human enteroid cells, 18-24 hours, acute 10 μM forskolin and 300 nM ivacaftor, read-out: Ent. A EC50
Procedure: Base medium (ADF+++) consisted of Advanced DMEM/Ham's F12, 2 mM Glutamax, 10 mM HEPES, […] penicillin/streptomycin.
Intestinal enteroid maintenance medium (IEMM) consisted of ADF+++, 1× B27 supplement, 1× N2 supplement, 1.25 mM N-acetyl cysteine, 10 mM Nicotinamide, 50 ng/mL hEGF, 10 nM Gastrin, 1 μg/mL hR-spondin-1, 100 ng/mL hNoggin, TGF-b type 1 inhibitor A-83-01, 100 μg/mL Primocin, 10 μM P38 MAPK inhibitor SB202190.
Bath 1 Buffer consisted of 1 mM MgCl2, 160 mM NaCl, 4.5 mM KCl, 10 mM HEPES, 10 mM Glucose, 2 mM CaCl2).
Chloride Free Buffer consisted of 1 mM Magnesium Gluconate, 2 mM Calcium Gluconate, 4.5 mM Potassium Gluconate, 160 mM Sodium Gluconate, 10 mM HEPES, 10 mM Glucose.
BathI Dye Solution consisted of Bath 1 Buffer, 0.04% Pluronic F127, 20 μM Methyl Oxonol, 30 μM CaCCinh-A01, 30 μM Chicago Sky Blue.
Chloride Free Dye Solution consisted of Chloride Free Buffer, 0.04% Pluronic F127, 20 μM Methyl Oxonol, 30 μM CaCCinh-A01, 30 μM Chicago Sky Blue.
Chloride Free Dye Stimulation Solution consisted of Chloride Free Dye Solution, 10 μM forskolin, 100 μM IBMX, and 300 nM Compound III.
Human intestinal epithelial enteroid cells were obtained from the Hubrecht Institute for Developmental Biology and Stem Cell Research, Utrecht, The Netherlands and expanded in T-Flasks as previously described (Dekkers J F, Wiegerinck C L, de Jonge H R, Bronsveld I, Janssens H M, de Winter-de Groot K M, Brandsma A M, de Jong N W M, Bijvelds M J C, Scholte B J, Nieuwenhuis E E S, van den Brink S, Clevers H, van der Ent C K, Middendorp S and M Beekman J M. A functional CFTR assay using primary cystic fibrosis intestinal organoids. Nat Med. 2013 July;19(7):939-45.).
3. Enteroid Cell Harvesting and Seeding
Cells were recovered in cell recovery solution, collected by centrifugation at 650 rpm for 5 min at 4° C., resuspended in TrypLE and incubated for 5 min at 37° C. Cells were then collected by centrifugation at 650 rpm for 5 min at 4° C. and resuspended in IEMM containing 10 μM ROCK inhibitor (RI). The cell suspension was passed through a 40 μm cell strainer and resuspended at 1×10^6 cells/mL in IEMM containing 10 μM RI. Cells were seeded at 5000 cells/well into multi-well plates and incubated for overnight at 37° C., 95% humidity and 5% CO2 prior to assay.
4. Membrane Potential Dye, Enteroid Assay A
Enteroid cells were incubated with test compound in IEMM for 18-24 hours at 37° C., 95% humidity and 5% CO2. […] Briefly, cells were washed 5 times in Bath 1 Buffer. Bath 1 Dye Solution was added, and the cells were incubated for 25 min at room temperature. Following dye incubation, cells were washed 3 times in Chloride Free Dye Solution. Chloride transport was initiated by addition of Chloride Free Dye Stimulation Solution and the fluorescence signal was read for 15 min. […] Chloride transport was then expressed as a percentage of the chloride transport following treatment with 3 μM N-[(6-amino-2-pyridyl)sulfonyl]-6-(3-fluoro-5-isobutoxy-phenyl)-2-[(4S)-2,2,4-trimethylpyrrolidin-1-yl]pyridine-3-carboxamide, 3 μM (R)-1-(2,2-difluorobenzo[d][1,3]dioxol-5-yl)-N-(1-(2,3-dihydroxypropyl)-6-fluoro-2-(1-hydroxy-2-methylpropan-2-yl)-1H-indol-5-yl)cyclopropanecarboxamide and 300 nM acute N-[2,4-bis(1,1-dimethylethyl)-5-hydroxyphenyl]-1,4-dihydro-4-oxoquinoline-3-carboxamide triple combination control (% Activity).

[2] = biological target: T1, CFTR (Homo sapiens, UniProt P13569, DEL508-508); assay: HBE assay: Ussing chamber assay of CFTR-mediated short-circuit currents; conditions: for activation at 10 µM: read-out: HBE Activity at 10 μM (%); for pEC50: read-out: HBE EC50; for Emax: read-out: HBE Max activity (%)
T1 construct: endogenous in cells; host or cells: primary human bronchial epithelial cells from CF subjects (F508del/MF-HBE), differentiated at air-liquid interface
How it was run: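 CFTR-mediated Isc (μA/cm²) equals the peak response to apical 20 μM forskolin minus the residual after a 20 μM each BPO/GlyH-101/CFTR inhibitor 172 cocktail, recorded in Ussing chambers at Vhold 0 mV, 37 °C, pH 7.4, with 30 μM apical amiloride. Cells were F508del/MF HBE cultures preincubated 18-24 h with corrector (concentration range or 10 μM) plus 1 μM ivacaftor in 20% human serum.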

[3] = biological target: T1, CFTR; assay: HBE2 assay: Ussing chamber assay of CFTR-mediated short-circuit currents; conditions: F508del/MF-HBE cells, with 44 nM potentiator, 18-24 hours, 20% human serum; for Emax: read-out: HBE2 Max activity (%)
How it was run: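 Corrector activity read as CFTR-dependent ISC (μA/cm^2): peak forskolin current minus post-inhibitor steady state. Measured at 37 °C, voltage clamp at 0 mV, on F508del/MF-HBE epithelia grown >14 days air-liquid interface in Ussing chambers.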

Sequence of CFTR (Homo sapiens, UniProt P13569) (P13569 with tags, fused parts or gaps DEL508-508): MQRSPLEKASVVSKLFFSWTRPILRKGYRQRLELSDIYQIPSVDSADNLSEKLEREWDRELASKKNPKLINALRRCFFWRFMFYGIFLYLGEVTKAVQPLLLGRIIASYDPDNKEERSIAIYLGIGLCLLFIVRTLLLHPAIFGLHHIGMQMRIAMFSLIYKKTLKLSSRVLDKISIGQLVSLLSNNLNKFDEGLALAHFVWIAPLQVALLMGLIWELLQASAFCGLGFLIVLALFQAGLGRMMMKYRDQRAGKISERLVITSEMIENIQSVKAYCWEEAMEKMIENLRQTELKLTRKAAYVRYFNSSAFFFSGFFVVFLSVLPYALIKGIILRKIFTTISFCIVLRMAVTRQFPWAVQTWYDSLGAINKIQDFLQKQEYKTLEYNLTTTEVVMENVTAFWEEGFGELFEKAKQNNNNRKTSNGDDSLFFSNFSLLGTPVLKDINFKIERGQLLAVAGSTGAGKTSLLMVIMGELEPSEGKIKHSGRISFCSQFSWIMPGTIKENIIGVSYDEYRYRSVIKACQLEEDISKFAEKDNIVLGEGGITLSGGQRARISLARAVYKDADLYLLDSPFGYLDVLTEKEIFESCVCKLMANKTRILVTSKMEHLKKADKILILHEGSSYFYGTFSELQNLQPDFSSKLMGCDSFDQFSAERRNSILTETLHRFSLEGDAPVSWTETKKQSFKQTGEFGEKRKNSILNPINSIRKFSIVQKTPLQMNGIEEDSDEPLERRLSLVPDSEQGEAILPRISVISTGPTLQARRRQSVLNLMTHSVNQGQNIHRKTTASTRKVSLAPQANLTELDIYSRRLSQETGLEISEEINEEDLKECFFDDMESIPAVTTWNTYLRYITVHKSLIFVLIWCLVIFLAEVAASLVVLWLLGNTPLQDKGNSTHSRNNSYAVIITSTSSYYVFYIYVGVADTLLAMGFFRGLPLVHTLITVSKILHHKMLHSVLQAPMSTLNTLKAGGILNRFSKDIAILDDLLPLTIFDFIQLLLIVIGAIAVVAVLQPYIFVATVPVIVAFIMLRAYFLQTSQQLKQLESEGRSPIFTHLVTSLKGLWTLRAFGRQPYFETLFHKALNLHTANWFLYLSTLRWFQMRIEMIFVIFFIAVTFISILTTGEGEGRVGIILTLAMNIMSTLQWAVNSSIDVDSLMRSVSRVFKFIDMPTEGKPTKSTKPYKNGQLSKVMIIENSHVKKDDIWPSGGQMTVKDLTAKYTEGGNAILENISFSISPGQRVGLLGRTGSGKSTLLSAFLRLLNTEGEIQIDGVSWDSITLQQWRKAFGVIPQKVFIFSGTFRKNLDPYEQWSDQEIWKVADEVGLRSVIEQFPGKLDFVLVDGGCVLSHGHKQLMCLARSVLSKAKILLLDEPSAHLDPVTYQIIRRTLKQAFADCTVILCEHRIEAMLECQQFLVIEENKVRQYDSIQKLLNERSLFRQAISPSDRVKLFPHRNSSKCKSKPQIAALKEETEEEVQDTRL
T1 sequence (P13569 with tags, fused parts or gaps DEL508-508): as above

Structure (SMILES) | activation at 10 µM ([2]; HBE assay, 10 μM) | HBE2 Activity at 3 μM (%) [3] | also measured
Cc1cccc(C)c1-c1cc2nc(n1)NS(=O)(=O)c1cccc(c1)C(=O)N(C)C[C@@H](c1ccc(C(C)(C)C)cc1)O2 (single isomer, unassigned) [Compound 12, 10-(4-tert-butylphenyl)-6-(2,6-dimethylphenyl)-12-methyl-2,2-dioxo-9-oxa-2λ^6-thia-3,5,12,19-tetrazatricyclo[12.3.1.14,8]nonadeca-1(18),4(19),5,7,14,16-hexaen-13-one] |  |  | Ent. A Max Activity [1]: ++ (++ is 30-60%); pEC50 [1]: > 6.00
Cc1cccc(C)c1-c1cc2nc(n1)NS(=O)(=O)c1cccc(c1)C(=O)N(C)C[C@H](c1cccc(C(C)(C)C)c1)O2 (single isomer, unassigned) [Compound 15, 10-(3-tert-butylphenyl)-6-(2,6-dimethylphenyl)-12-methyl-2,2-dioxo-9-oxa-2λ^6-thia-3,5,12,19-tetrazatricyclo[12.3.1.14,8]nonadeca-1(18),4(19),5,7,14,16-hexaen-13-one] |  |  | Ent. A Max Activity [1]: + (+ is <30%); pEC50 [1]: 4.52 to 5.52
Cc1cccc(C)c1-c1cc2nc(n1)NS(=O)(=O)c1cccc(c1)C(=O)N(Cc1ccc3cc(C4CC4)n(C)c3n1)[C@H](CC(C)(C)C)CO2 [Compound 1304, (11R)-12-[(2-Cyclopropyl-1-methyl-pyrrolo[2,3-b]pyridin-6-yl)methyl]-6-(2,6-dimethylphenyl)-11-(2,2-dimethylpropyl)-2,2-dioxo-9-oxa-2λ^6-thia-3,5,12,19-tetrazatricyclo[12.3.1.14,8]nonadeca-1(18),4(19),5,7,14,16-hexaen-13-one] | > 60% | +++ (+++ is >60+) | 
Cc1cccc(C)c1-c1cc2nc(n1)NS(=O)(=O)c1cccc(c1)C(=O)N(Cc1ccnc(N(C)C3CC4(CC4)C3)n1)[C@H](CC(C)(C)C)CO2 [Compound 1448] | > 60% |  | pEC50 [3]: > 6.00; Emax [3]: > 60%
COCC1(CN(C)c2cncc(CN3C(=O)c4cccc(c4)S(=O)(=O)Nc4nc(cc(-c5c(C)cccc5C)n4)OC[C@H]3CC(C)(C)C)n2)CC1 [Compound 1492] | > 60% | +++ (+++ is >60+) | pEC50 ([2]; HBE assay): > 6.00; Emax ([2]; HBE assay): > 60%
COC[C@@H](C)N(C)c1cncc(CN2C(=O)c3cccc(c3)S(=O)(=O)Nc3nc(cc(-c4c(C)cccc4C)n3)OC[C@H]2CC(C)(C)C)n1 [Compound 1493] |  | +++ (+++ is >60+) | pEC50 ([2]; HBE assay): > 6.00; Emax ([2]; HBE assay): > 60%
Cc1cccc(C)c1-c1cc2nc(n1)NS(=O)(=O)c1cccc(c1)C(=O)N(Cc1cncc(N3CCC[C@H]3C3CC3)n1)[C@H](CC(C)(C)C)CO2 [Compound 1495] |  | +++ (+++ is >60+) | EC50 ([2]; HBE EC50 (μM), HBE assay): < 1 µM; Emax [2]: > 60%
CC[C@@H]1CCCN1c1cncc(CN2C(=O)c3cccc(c3)S(=O)(=O)Nc3nc(cc(-c4c(C)cccc4C)n3)OC[C@H]2CC(C)(C)C)n1 [Compound 1496] |  | +++ (+++ is >60+) | pEC50 ([2]; HBE assay): > 6.00; Emax ([2]; HBE assay): > 60%
Cc1cccc(C)c1-c1cc2nc(n1)NS(=O)(=O)c1cccc(c1)C(=O)N(Cc1cncc(N3CCCC[C@H]3C)n1)[C@H](CC(C)(C)C)CO2 [Compound 1506] |  |  | activation at 10 µM [2]: > 60%; pEC50 [3]: > 6.00; Emax [3]: > 60%
Cc1cccc(C)c1-c1cc2nc(n1)NS(=O)(=O)c1cccc(c1)C(=O)N(Cc1cncc(N(C)CC3CC3)n1)[C@H](CC(C)(C)C)CO2 [Compound 1507] | > 60% | +++ (+++ is >60+) | 
Cc1cccc(C)c1-c1cc2nc(n1)NS(=O)(=O)c1cccc(c1)C(=O)N(Cc1cncc(N3CC[C@H]3C)n1)[C@H](CC(C)(C)C)CO2 [Compound 1512] |  |  | activation at 10 µM [2]: > 60%; pEC50 [3]: > 6.00; Emax [3]: > 60%
COC(=O)N(C)c1cnc(CN2C(=O)c3cccc(c3)S(=O)(=O)Nc3nc(cc(-c4c(C)cccc4C)n3)OC[C@H]2CC(C)(C)C)nc1 [Compound 1517] | > 60% | +++ (+++ is >60+) | 
Cc1cccc(C)c1-c1cc2nc(n1)NS(=O)(=O)c1cccc(c1)C(=O)N(Cc1ncc(N(C)C(=O)OC(C)C)cn1)[C@H](CC(C)(C)C)CO2 [Compound 1518] | > 60% |  | Emax [3]: > 60%
Cc1cccc(C)c1-c1cc2nc(n1)NS(=O)(=O)c1cccc(c1)C(=O)N(Cc1cncc(N(C)CC(C)C)n1)[C@H](CC(C)(C)C)CO2 [Compound 1519] | > 60% |  | pEC50 [3]: > 6.00; Emax [3]: > 60%
Cc1cccc(C)c1-c1cc2nc(n1)NS(=O)(=O)c1cccc(c1)C(=O)N(Cc1ncc(N3CC(C)(C)C3)cn1)[C@H](CC(C)(C)C(F)(F)F)CO2 [Compound 1520] | > 60% | +++ (+++ is >60+) | 
CCCOc1cnc(CN2C(=O)c3cccc(c3)S(=O)(=O)Nc3nc(cc(-c4c(C)cccc4C)n3)OC[C@H]2CC2CCC2)nc1 [Compound 1522] | > 60% | +++ (+++ is >60+) | pEC50 [3]: > 6.00; Emax [3]: > 60%
CCCOc1cnc(CN2C(=O)c3cccc(c3)S(=O)(=O)Nc3nc(cc(-c4c(C)cccc4C)n3)OC[C@H]2CC(C)C)nc1 [Compound 1523] | > 60% | +++ (+++ is >60+) | 
CCC(C)Oc1cnc(CN2C(=O)c3cccc(c3)S(=O)(=O)Nc3nc(cc(-c4c(C)cccc4C)n3)OC[C@H]2CCC(C)C)nc1 (some centres unmarked) [Compound 1528] | > 60% | +++ (+++ is >60+) | 
Cc1cccc(C)c1-c1cc2nc(n1)NS(=O)(=O)c1cccc(c1)C(=O)N(Cc1ncc(N3CC(C)(C)C3)cn1)[C@H](CC1(C(F)(F)F)CC1)CO2 [Compound 1529] | > 60% | +++ (+++ is >60+) | 
CC[C@H](C)Oc1cnc(CN2C(=O)c3cccc(c3)S(=O)(=O)Nc3nc(cc(-c4c(C)cccc4C)n3)OC[C@H]2CC2(C)CC2)nc1 [Compound 1546] | > 60% | +++ (+++ is >60+) | 
CC[C@H](C)Oc1cnc(CN2C(=O)c3cccc(c3)S(=O)(=O)Nc3nc(cc(-c4c(C)cccc4C)n3)OC[C@H]2CCC(C)(C)C)nc1 [Compound 1547] | > 60% | +++ (+++ is >60+) | 
